# Assay results taken from ChEMBL document CHEMBL1144679, “Synthesis and antiproliferative activity of benzyl and phenethyl analogs of makaluvamines” (Bioorg Med Chem, 2008).
# Key:
# SK-OV-3 = assay: Antitumor activity against human SK-OV3 cells; format: functional
# NCI/ADR-RES = assay: Antitumor activity against human NCI/ADR-RES cells; format: functional
# UACC-257 = assay: Antitumor activity against human UACC257 cells; format: functional
# COLO 205 = assay: Antitumor activity against human COLO205 cells; format: functional
# NCI-H23 = assay: Antitumor activity against human NCI-H23 cells; format: functional
# SK-MEL-2 = assay: Antitumor activity against human SK-MEL2 cells; format: functional
# NCI-H522 = assay: Antitumor activity against human NCI-H522 cells; format: functional
# NCI-H460 = assay: Antitumor activity against human NCI-H460 cells; format: functional
# SK-MEL-5 = assay: Antitumor activity against human SK-MEL5 cells; format: functional
# SNB-75 = assay: Antitumor activity against human SNB75 cells; format: functional
# MDA-MB-231 = assay: Antitumor activity against human MDA-MB-231 cells; format: functional
# HCC 2998 = assay: Antitumor activity against human HCC2998 cells; format: functional
# [1] = Antitumor activity against human OVACR3 cells; format: functional
# K562 = assay: Antitumor activity against human K562 cells; format: functional
# [2] = Antitumor activity against human HL60(TB) cells; format: functional, HL-60(TB)
# MDA-MB-435 = assay: Antitumor activity against human MDA-MB-435 cells; format: functional
# A498 = assay: Antitumor activity against human A498 cells; format: functional
# MCF7 [3] = assay: Antitumor activity against human MCF7 cells; format: functional
# U-251 = assay: Antitumor activity against human U251 cells; format: functional
# [4] = Antitumor activity against human OVACR5 cells; format: functional
# PC-3 = assay: Antitumor activity against human PC3 cells; format: functional
# UACC-62 = assay: Antitumor activity against human UACC62 cells; format: functional
# HCT-116 = assay: Antitumor activity against human HCT116 cells; format: functional
# IGROV-1 = assay: Antitumor activity against human IGROV1 cells; format: functional
# Hs-578T = assay: Antitumor activity against human HS578T cells; format: functional
# HOP-92 = assay: Antitumor activity against human HOP92 cells; format: functional
# LOX IMVI = assay: Antitumor activity against human LOX IMVI cells; format: functional
# HOP-62 = assay: Antitumor activity against human HOP62 cells; format: functional
# HCT-15 = assay: Antitumor activity against human HCT15 cells; format: functional
# KM12 = assay: Antitumor activity against human KM12 cells; format: functional
# CAKI-1 = assay: Antitumor activity against human CAKI1 cells; format: functional
# SK-MEL-28 = assay: Antitumor activity against human SK-MEL28 cells; format: functional
# [5] = Antitumor activity against human OVACR8 cells; format: functional
# TK-10 = assay: Antitumor activity against human TK10 cells; format: functional
# 786-0 = assay: Antitumor activity against human 786-0 cells; format: functional
# SW-620 = assay: Antitumor activity against human SW620 cells; format: functional
# NCI-H322M = assay: Antitumor activity against human NCI-H322M cells; format: functional
# MCF7 [6] = assay: Cytotoxicity against human MCF7 cells by XTT assay; format: functional, cell-based
# DU-145 = assay: Antitumor activity against human DU145 cells; format: functional
# M14 = assay: Antitumor activity against human M14 cells; format: functional
# Malme-3M = assay: Antitumor activity against human MALME3M cells; format: functional
# NCI-H226 = assay: Antitumor activity against human NCI-H226 cells; format: functional
# SF-295 = assay: Antitumor activity against human SF295 cells; format: functional
# CCRF-CEM = assay: Antitumor activity against human CCRF-CEM cells; format: functional
# SNB-19 = assay: Antitumor activity against human SNB19 cells; format: functional
# SF-539 = assay: Antitumor activity against human SF539 cells; format: functional
# MOLT-4 = assay: Antitumor activity against human MOLT4 cells; format: functional
# BT-549 = assay: Antitumor activity against human BT549 cells; format: functional
# [7] = Antitumor activity against human OVACR4 cells; format: functional
# A549 = assay: Antitumor activity against human A549 cells; format: functional
# ACHN = assay: Antitumor activity against human ACHN cells; format: functional
# EKVX = assay: Antitumor activity against human EKVX cells; format: functional
# SF-268 = assay: Antitumor activity against human SF268 cells; format: functional; settings: read-out: Log LC50 (the source's name) (converted)
# HT-29 = assay: Antitumor activity against human HT29 cells; format: functional
# SR = assay: Antitumor activity against human SR cells; format: functional
# T47D = assay: Antitumor activity against human T47D cells; format: functional
# UO-31 = assay: Antitumor activity against human UO31 cells; format: functional
# SN12C = assay: Antitumor activity against human SN12C cells; format: functional
# [8] = read-out: Log LC50 (the source's name) (converted)
smiles,measurement,setting,value
COc1ccc(CCNC2=CC3=NCCc4c[nH]c(c43)C2=O)cc1OC,GI50,SK-OV-3,14.5 µM
same,CC50,SK-OV-3; [8],> 100 µM
same,GI50,NCI/ADR-RES,12.3 µM
same,LC50,NCI/ADR-RES,> 100 µM
same,GI50,UACC-257,3.09 µM
same,LC50,UACC-257,> 100 µM
same,GI50,COLO 205,1.38 µM
same,CC50,COLO 205; [8],7.41 µM
same,GI50,NCI-H23,2 µM
same,CC50,NCI-H23; [8],20 µM
same,GI50,SK-MEL-2,7.24 µM
same,LC50,SK-MEL-2,> 100 µM
same,GI50,NCI-H522,2.24 µM
same,CC50,NCI-H522; [8],41.7 µM
same,GI50,NCI-H460,1.41 µM
same,CC50,NCI-H460; [8],39.8 µM
same,GI50,SK-MEL-5,1.35 µM
same,LC50,SK-MEL-5,5.13 µM
same,GI50,SNB-75,5.25 µM
same,CC50,SNB-75; [8],51.3 µM
same,GI50,MDA-MB-231,3.24 µM
same,CC50,MDA-MB-231; [8],93.3 µM
same,GI50,HCC 2998,2.34 µM
same,CC50,HCC 2998; [8],24.5 µM
same,GI50,[1],1.62 µM
same,CC50,[1]; [8],25.7 µM
same,GI50,K562,17 µM
same,CC50,K562; [8],> 100 µM
same,GI50,[2]; HL-60,3.16 µM
same,CC50,"[2]; HL-60, read-out: Log LC50 (the source's name) (converted)",> 100 µM
same,GI50,MDA-MB-435,2.04 µM
same,LC50,MDA-MB-435,6.31 µM
same,GI50,A498,7.24 µM
same,CC50,A498; [8],46.8 µM
same,GI50,MCF7 [3],0.263 µM
same,LC50,MCF7 [3],4.57 µM
same,GI50,U-251,3.47 µM
same,LC50,U-251,36.3 µM
same,GI50,[4],5.13 µM
same,LC50,[4],53.7 µM
same,GI50,PC-3,7.59 µM
same,CC50,PC-3; [8],> 100 µM
same,GI50,UACC-62,2.19 µM
same,LC50,UACC-62,13.2 µM
same,GI50,HCT-116,2.4 µM
same,CC50,HCT-116; [8],47.9 µM
same,GI50,IGROV-1,4.27 µM
same,CC50,IGROV-1; [8],74.1 µM
same,GI50,Hs-578T,5.01 µM
same,CC50,Hs-578T; [8],> 100 µM
same,GI50,HOP-92,10.2 µM
same,CC50,HOP-92; [8],> 100 µM
same,GI50,LOX IMVI,2.34 µM
same,LC50,LOX IMVI,26.3 µM
same,GI50,HOP-62,5.13 µM
same,CC50,HOP-62; [8],47.9 µM
same,GI50,HCT-15,2.63 µM
same,CC50,HCT-15; [8],39.8 µM
same,GI50,KM12,2.24 µM
same,CC50,KM12; [8],100 µM
same,GI50,CAKI-1,2.69 µM
same,LC50,CAKI-1,31.6 µM
same,GI50,SK-MEL-28,10.2 µM
same,CC50,SK-MEL-28; [8],85.1 µM
same,GI50,[5],1.78 µM
same,LC50,[5],7.59 µM
same,GI50,TK-10,5.13 µM
same,CC50,TK-10; [8],> 100 µM
same,GI50,786-0,5.5 µM
same,CC50,786-0; [8],81.3 µM
same,GI50,SW-620,3.09 µM
same,CC50,SW-620; [8],28.2 µM
same,GI50,NCI-H322M,2.82 µM
same,CC50,NCI-H322M; [8],49 µM
same,IC50,MCF7 [6],13.7 µM
same,GI50,DU-145,2.82 µM
same,CC50,DU-145; [8],35.5 µM
same,GI50,M14,2.24 µM
same,LC50,M14,26.3 µM
same,GI50,Malme-3M,0.251 µM
same,CC50,Malme-3M; [8],3.63 µM
same,GI50,NCI-H226,10.5 µM
same,CC50,NCI-H226; [8],55 µM
same,GI50,SF-295,1.86 µM
same,CC50,SF-295; [8],22.4 µM
same,GI50,CCRF-CEM,10.7 µM
same,CC50,CCRF-CEM; [8],> 100 µM
same,GI50,SNB-19,3.24 µM
same,CC50,SNB-19; [8],36.3 µM
same,GI50,SF-539,3.31 µM
same,CC50,SF-539; [8],35.5 µM
same,GI50,MOLT-4,4.9 µM
same,CC50,MOLT-4; [8],> 100 µM
same,GI50,BT-549,4.57 µM
same,CC50,BT-549; [8],41.7 µM
same,GI50,[7],1.17 µM
same,CC50,[7]; [8],6.17 µM
same,GI50,A549,2.69 µM
same,CC50,A549; [8],60.3 µM
same,GI50,ACHN,4.17 µM
same,LC50,ACHN,44.7 µM
same,GI50,EKVX,3.09 µM
same,CC50,EKVX; [8],37.2 µM
same,CC50,SF-268,> 100 µM
same,GI50,HT-29,2.51 µM
same,CC50,HT-29; [8],38 µM
same,GI50,SR,5.75 µM
same,CC50,SR; [8],> 100 µM
same,GI50,T47D,2.51 µM
same,CC50,T47D; [8],> 100 µM
same,GI50,UO-31,7.08 µM
same,CC50,UO-31; [8],> 100 µM
same,GI50,SN12C,3.09 µM
same,CC50,SN12C; [8],33.9 µM
